Measurements from US20210276977A1, “BICYCLIC INHIBITORS OF HISTONE DEACETYLASE” (Alkermes, Inc., priority 2018, published 2021).

What was measured:
Full length Human HDAC2 = molecular target: T1, Full length Human HDAC2 (Homo sapiens, UniProt Q92769); test: HDAC2 enzymatic assay (deacetylation of FAM-labeled peptide substrate, microfluidic electrophoresis); assay type: biochemical; conditions: recombinant enzymatic assay, Table 2, class symbols
T1 construct: Full length Human HDAC2; FLAG (C); host or cells: baculovirus expression system
Method: (§1) HDAC2 and HDAC1 Enzymatic Assay (HDAC2 and HDAC1 IC50 Data)
(§2) The following describes an assay protocol for measuring the deacetylation of a peptide substrate by HDAC2 or HDAC1.
(§3) HD AC protein composition and respective substrate peptides are summarized below.
(§4) HD AC reactions are assembled in 384 well plates (Greiner) in a total volume of 20 μL as following:
(§5) HDAC proteins are pre-diluted in the assay buffer comprising: 100 mM HEPES, pH 7.5, 0.1% BSA, 0.01% Triton X-100, 25 mM KCl and dispensed into 384 well plate (10 uL per well).
(§6) Test compounds are serially pre-diluted in DMSO and added to the protein samples by acoustic dispensing (Labcyte Echo). Concentration of DMSO is equalized to 1% in all samples.
(§7) Control samples (0%-inhibition in the absence of inhibitor, DMSO only) and 100%-inhibition (in the absence of enzyme) are assembled in replicates of four and used to calculate the %-inhibition in the presence of compounds.
(§8) At this step compounds can be pre-incubated with enzyme if desired.
(§9) The reactions are initiated by addition of 10 uL of the FAM-labeled substrate peptide pre-diluted in the same assay buffer. Final concentration of substrate peptide is 1 uM (HDAC1-2).
(§10) The reactions are allowed to proceed at room temperature. Following incubation, the reactions are quenched by addition of 50 μL of termination buffer (100 mM HEPES, pH7.5, 0.01% Triton X-100, 0.1% SDS). Terminated plates are analyzed on a microfluidic electrophoresis instrument (Caliper LabChip® 3000, Caliper Life Sciences/Perkin Elmer) which enables electrophoretic separation of de-acetylated product from acetylated substrate. A change in the relative intensity of the peptide substrate and product is the parameter measured. Activity in each test sample is determined as the product to sum ratio (PSR): P/(S+P), where P is the peak height of the product, and S is the peak height of the substrate. Percent inhibition (Pinh) is determined using the following equation: Pinh=(PSR0% inh−PSRcompound)/(PSR0% inh−PSR100% inh)*100, in which: PSRcompound is the product/sum ratio in the presence of compound, PSR0% inh is the product/sum ratio in the absence of compound and the PSR100% inh is the product/sum ratio in the absence of the enzyme. To determine IC50 of compounds (50%-inhibition) the %-inh data (Pinh versus compound concentration) are fit by a 4 parameter sigmoid dose-response model using XLfit software (IDBS).
(§11) In the table, “A” indicates a IC50 value of less than 0.5 μM; “B” a IC50 value from 0.5 μM to 1.0 μM; “C” a IC50 value of greater than 1.0 μM and less than or equal to 2.0 μM; and “D” indicates an IC50 value of greater than 2.0 μM. NT=Not Tested.

HDAC2 = molecular target: T2, HDAC2 (Homo sapiens, UniProt Q92769); test: HDAC2 Enzymatic Inhibition Assay in SH-SY5Y Cell Lysate with an Exogenous Substrate (HDAC-Glo 2); assay type: cell-based; conditions: SH-SY5Y cells, five hours incubation, Table 3, class symbols
T2 construct: host or cells: SH-SY5Y cells
Method: HDAC2 Enzymatic Inhibition Assay in SH-SY5Y Cell Lysate with an Exogenous Substrate
SH-SY5Y cells (Sigma) were cultured in Eagle's Modified Essential Medium supplemented with 10% fetal bovine serum and pen/strep. Twenty-four hours prior to compound dosing 20 uL of cells were plated in white 384 well plates at a density of 1,500 cells/well. Compounds were serially diluted in neat DMSO and then diluted 1:100 v/v into media without FBS and mixed. Media was removed from the plated cells and the diluted compounds in serum free media (1% v/v final DMSO) were added and incubated at 37° C. for five hours. Ten uL of HDAC-Glo 2 reagent with 0.1% Triton X-100 was then added, the plate was mixed and allowed to develop at room temperature for 100 minutes. Plates were then read with a Spectramax LMax luminometer employing a 0.4 s integration time. Dose response curves were constructed with normalized data where CI-994 at 100 uM was defined as 100% inhibition and DMSO alone as 0% inhibition.
as §11

Full length Human HDAC1 = molecular target: T3, Full length Human HDAC1 (Homo sapiens, UniProt Q13547); test: HDAC1 enzymatic assay (deacetylation of FAM-labeled peptide substrate, microfluidic electrophoresis); assay type: biochemical; conditions: recombinant enzymatic assay, Table 2, class symbols
T3 construct: Full length Human HDAC1; His (C); FLAG (C); host or cells: baculovirus expression system
Method: as §1, §2, §3, §4, §5, §6, §7, §8, §9, §10, §11

T2 sequence (Q92769 whole entry): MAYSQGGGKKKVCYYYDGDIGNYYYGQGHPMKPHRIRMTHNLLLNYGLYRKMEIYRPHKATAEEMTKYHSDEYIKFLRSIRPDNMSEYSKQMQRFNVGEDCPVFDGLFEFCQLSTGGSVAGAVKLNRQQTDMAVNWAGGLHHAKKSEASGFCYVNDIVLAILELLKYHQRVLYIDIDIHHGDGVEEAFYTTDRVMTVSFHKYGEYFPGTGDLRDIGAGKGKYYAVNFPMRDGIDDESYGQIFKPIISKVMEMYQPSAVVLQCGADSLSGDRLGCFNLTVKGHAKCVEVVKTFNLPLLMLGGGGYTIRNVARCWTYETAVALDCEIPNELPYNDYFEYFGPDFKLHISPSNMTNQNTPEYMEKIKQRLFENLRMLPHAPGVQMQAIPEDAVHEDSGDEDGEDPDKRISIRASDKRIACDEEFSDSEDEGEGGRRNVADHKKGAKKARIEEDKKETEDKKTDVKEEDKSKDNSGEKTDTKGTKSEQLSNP
T1 sequence (Q92769 whole entry): as above
T3 sequence (Q13547 whole entry): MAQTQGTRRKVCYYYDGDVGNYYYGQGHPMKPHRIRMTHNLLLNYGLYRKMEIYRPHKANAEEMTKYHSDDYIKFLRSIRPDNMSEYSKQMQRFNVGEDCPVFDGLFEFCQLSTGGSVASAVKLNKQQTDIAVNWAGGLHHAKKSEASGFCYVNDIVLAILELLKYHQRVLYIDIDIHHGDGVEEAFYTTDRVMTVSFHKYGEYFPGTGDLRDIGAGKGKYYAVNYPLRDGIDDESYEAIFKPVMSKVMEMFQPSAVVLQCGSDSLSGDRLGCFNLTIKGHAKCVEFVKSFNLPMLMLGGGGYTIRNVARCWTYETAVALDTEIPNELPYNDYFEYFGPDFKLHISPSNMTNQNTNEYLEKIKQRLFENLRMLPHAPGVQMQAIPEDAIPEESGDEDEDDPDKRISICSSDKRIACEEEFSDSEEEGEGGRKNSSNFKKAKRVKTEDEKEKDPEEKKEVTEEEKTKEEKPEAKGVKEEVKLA

Row | SMILES | IC50 (Full length Human HDAC2) | IC50 (HDAC2) | IC50 (Full length Human HDAC1)
1 | Cc1ccc(CC2CN(C(=O)Nc3nc(-c4ccc(F)cc4F)ccc3N)C2)nn1 [Compound 24] | 1000 to 2000 nM | < 500 nM | 500 to 1000 nM
2 | Nc1ccc(-c2ccccc2F)nc1NC(=O)N1CC(Cc2ncc(F)cn2)C1 [Compound 26] | 500 to 1000 nM | 1000 to 2000 nM | 500 to 1000 nM
3 | Nc1ccc(-c2ccc(F)cc2)nc1NC(=O)N1CC(Cc2ncc(F)cn2)C1 [Compound 27] | < 500 nM | 500 to 1000 nM | < 500 nM
4 | Nc1ccc(-c2ccc(F)cc2F)nc1NC(=O)N1CC(Cn2cccn2)C1 [Compound 30] | 1000 to 2000 nM | 1000 to 2000 nM | 1000 to 2000 nM
5 | Nc1ccc(-c2ccc(F)cc2F)nc1NC(=O)N1CC(Cn2ccnc2)C1 [Compound 31] | > 2000 nM | > 2000 nM | > 2000 nM
6 | Nc1ccc(-c2ccc(F)cc2F)nc1NC(=O)N1CC(C(F)(F)c2ncccn2)C1 [Compound 33] | 500 to 1000 nM | 1000 to 2000 nM | 500 to 1000 nM
7 | Nc1ccc(-c2ccc(F)cc2F)nc1NC(=O)N1CC(C(F)(F)c2ncc(F)cn2)C1 [Compound 34] | 500 to 1000 nM | > 2000 nM | 500 to 1000 nM
8 | Nc1ccc(-c2ccccc2F)nc1NC(=O)N1CC(C(F)(F)c2ncccn2)C1 [Compound 35] | 500 to 1000 nM | 500 to 1000 nM | 1000 to 2000 nM
9 | Nc1ccc(-c2ccc(F)cc2)nc1NC(=O)N1CC(C(F)(F)c2ncccn2)C1 [Compound 36] | < 500 nM | 1000 to 2000 nM | < 500 nM
10 | Nc1ccc(-c2ccccc2F)nc1NC(=O)N1CC(C(F)(F)c2ncc(F)cn2)C1 [Compound 37] | 500 to 1000 nM | 500 to 1000 nM | 500 to 1000 nM
11 | Nc1ccc(-c2ccc(F)cc2)nc1NC(=O)N1CC(C(F)(F)c2ncc(F)cn2)C1 [Compound 38] | < 500 nM | 500 to 1000 nM | < 500 nM
12 | Nc1ccc(-c2ccc(F)cc2F)nc1NC(=O)N1CC(C(F)c2ncccn2)C1 (stereo not drawn) [Compound 40] | 1000 to 2000 nM | 500 to 1000 nM | 500 to 1000 nM
13 | CC(c1ncccn1)C1CN(C(=O)Nc2nc(-c3ccc(F)cc3F)ccc2N)C1 (stereo not drawn) [Compound 42] | 1000 to 2000 nM | < 500 nM | 500 to 1000 nM
14 | Nc1ccc(-c2ccc(F)cc2F)nc1NC(=O)N1CC(CCc2ccccn2)C1 [Compound 43] | > 2000 nM | > 2000 nM | 500 to 1000 nM
15 | Nc1ccc(-c2ccc(F)cc2F)nc1NC(=O)N1CC(CCc2ncccn2)C1 [Compound 44] | > 2000 nM | > 2000 nM | > 2000 nM
16 | Cc1nnc(CC2CN(C(=O)Nc3nc(-c4ccc(F)cc4F)ccc3N)C2)s1 [Compound 45] | 1000 to 2000 nM | 500 to 1000 nM | 500 to 1000 nM
17 | Nc1ccc(-c2ccc(F)cc2F)nc1NC(=O)N1CC(Cc2nnc(C(F)(F)F)s2)C1 [Compound 46] | 1000 to 2000 nM | > 2000 nM | 1000 to 2000 nM
18 | Cn1ccnc1CC1CN(C(=O)Nc2nc(-c3ccc(F)cc3F)ccc2N)C1 [Compound 47] | 1000 to 2000 nM | 1000 to 2000 nM | 500 to 1000 nM
19 | CC(c1ncccn1)C1CN(C(=O)Nc2nc(-c3ccc(F)cc3)ccc2N)C1 (stereo not drawn) [Compound 57] | 500 to 1000 nM | 1000 to 2000 nM | < 500 nM
20 | Nc1ccc(-c2ccc(F)cc2F)nc1NC(=O)N1CC(Oc2ncccn2)C1 [Compound 59] | 500 to 1000 nM | > 2000 nM | < 500 nM
21 | Nc1ccc(-c2ccc(F)s2)nc1NC(=O)N1CC(Cc2ncc(F)cn2)C1 [Compound 61] | 500 to 1000 nM | 1000 to 2000 nM | < 500 nM
22 | Nc1ccc(-c2ccc(F)cc2)nc1NC(=O)N1CC(Cc2ncccn2)C1 [Compound 64] | 1000 to 2000 nM | 500 to 1000 nM | < 500 nM
23 | Cc1cnc(CC2CN(C(=O)Nc3nc(-c4ccc(F)cc4)ccc3N)C2)nc1 [Compound 65] | 500 to 1000 nM | 500 to 1000 nM | < 500 nM
24 | Nc1ccc(-c2ccc(F)s2)nc1NC(=O)N1CC(Cc2ncccn2)C1 [Compound 66] | 500 to 1000 nM | 1000 to 2000 nM | < 500 nM
